Source: paper PMC1884159, “The crystal structure of Escherichia coli TdcF, a member of the highly conserved YjgF/YER057c/UK114 family” (BMC Structural Biology, 2007)

What was measured:
TdcF [1] = molecular target: T1, TdcF (Escherichia coli, UniProt P0AGL2); experiment: X-ray crystal structure, crystal soak; assay type: binding; details: 1 mM soak, 2 h, pH 8
T1 construct: recombinant, N-terminal His-tag not cleaved; homotrimer, 14 kDa subunits; ligand sites at subunit interfaces; Cys-36 seen as cysteine sulfonic acid in crystals

TdcF [2] = molecular target: T1, TdcF; experiment: X-ray crystal structure, no ligand added (as isolated); assay type: binding; details: 1.6 Å; inter-subunit site C only; putative identity from density, threonine an alternative

T1 sequence (P0AGL2 whole entry): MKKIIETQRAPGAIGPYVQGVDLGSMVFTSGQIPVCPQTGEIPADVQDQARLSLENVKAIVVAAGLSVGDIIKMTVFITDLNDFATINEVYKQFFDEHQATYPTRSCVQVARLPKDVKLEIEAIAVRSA

For `CCC(=O)C(=O)O` [2KT, 2-ketobutyrate], the “X-ray crystal structure, crystal soak” value (TdcF [1]; 1.6 Å, inter-subunit sites A, B and C occupied) was “clear density for a 2-ketobutyrate ligand in each of the three binding sites”.
For `CCC(=O)O` [PPI, propionate], the “X-ray crystal structure, crystal soak” value (TdcF [1]; 2.45 Å, inter-subunit sites B and C occupied) was “a propionate molecule could be placed with confidence in both”.
`N[C@@H](CO)C(=O)O` [SER, serine] was tested, and the “X-ray crystal structure, no ligand added (as isolated)” value (TdcF [2]) was “with serine as the ligand with its side-chain in two alternative conformations of equal occupancy”.
